The text below walks through data of patent publication US5120726A, “Rapamycin hydrazones” (American Home Products Corporation, priority 1991, dated 1992).

Where two headings read alike, the source gives them in different places.

Assay [1] deals with cells from the thymus of normal BALB/c mice (lymphocyte proliferation). Nature of the assay: comitogen-induced thymocyte proliferation procedure (LAF), lymphocyte proliferation. The format is cell-based. As to conditions: for IC50: Mus musculus, Lymphocyte, read-out: LAF IC50; for LAF (ratio): ratio vs rapamycin. How it is done:
(§1) Immunosuppressive activity was evaluated in an in vitro standard pharmacological test procedure to measure lymphocyte proliferation (LAF) and in two in vivo standard pharmacological test procedures. The first in vivo procedure was a popliteal lymph node (PLN) test procedure which measured the effect of compounds of this invention on a mixed lymphocyte reaction and the second in vivo procedure evaluated the survival time of a pinch skin graft.
Briefly, cells from the thymus of normal BALB/c mice are cultured for 72 hours with PHA and IL-1 and pulsed with tritiated thymidine during the last six hours. […] Cells are harvested and incorporated radioactivity is determined. Inhibition of lymphoproliferation is assessed as percent change in counts per minute from non-drug treated controls. The results are expressed by the following ratio, or as the percent inhibition of lymphoproliferation at 1 μM. [formula]

In assay [2] the test system is mixed lymphocyte reaction (popliteal lymph node). In words: popliteal lymph node (PLN) test procedure, effect on a mixed lymphocyte reaction. The format is in vivo, C3H mice (BALB/c donors). As to conditions: ratio vs rapamycin; p.o. daily Day 0 to Day 4. As for the experimental part:
as §1
A mixed lymphocyte reaction (MLR) occurs when lymphoid cells from genetically distinct animals are combined in tissue culture. Each stimulates the other to undergo blast transformation which results in increased DNA synthesis that can be quantified by the incorporation of tritiated thymidine. Since stimulating a MLR is a function of disparity at Major Histocompatibility antigens, an in vivo popliteal lymph node (PLN) test procedure closely correlates to host vs. graft disease. Briefly, irradiated spleen cells from BALB/c donors are injected into the right hind foot pad of recipient C3H mice. The drug is given daily, p.o. from Day 0 to Day 4. On Day 3 and Day 4, tritiated thymidine is given i.p., b.i.d. On Day 5, the hind popliteal lymph nodes are removed and dissolved, and radioactivity counted. […] Percent suppression is calculated using the non-drug treated animals as allogenic control. […]

For assay [3], the system named is pinch skin graft from male DBA/2 donors transplanted to male BALB/c recipients. In words: survival time of pinch skin graft. As to conditions: intraperitoneally; mean ± S.D. Format: in vivo. How it is done:
as §1
The second in vivo test procedure is designed to determine the survival time of pinch skin graft from male DBA/2 donors transplanted to male BALB/c recipients. The method is adapted from Billingham R. E. and Medawar P. B., J. Exp. Biol. 28:385-402, (1951). Briefly, a pinch skin graft from the donor is grafted on the dorsum of the recipient as a homograft, and an autograft is used as control in the same region. […] Untreated recipients serve as rejection control. The graft is monitored daily and observations are recorded until the graft becomes dry and forms a blackened scab. This is considered as the rejection day. The mean graft survival time (number of days±S.D.) of the drug treatment group is compared with the control group.

The test system of another assay is Candida albicans. The following applies: both in vitro and in vivo; cited from earlier work.
The next assay concerns adjuvant arthritis. The following applies: in vivo; cited from earlier work.
The test system of assay [4] is organ grafts in histoincompatible rodents. The following applies: cited from earlier work.
The subject of the next assay is T-cell activation. As to conditions: cited from earlier work.
The mark [5] stands for this setting: thymocytes cultured 72 hours with PHA and IL-1, tritiated thymidine last six hours.

For orientation: IC50 means the concentration at which inhibition is half-maximal. Consider `CO[C@H]1C[C@@H]2CC[C@@H](C)[C@@](O)(O2)C(=O)C(=O)N2CCCC[C@H]2C(=O)O[C@H]([C@H](C)C[C@@H]2CC[C@@H](O)[C@H](OC)C2)CC(=O)[C@H](C)/C=C(\C)[C@@H](O)[C@@H](OC)C(=O)[C@H](C)C[C@H](C)/C=C/C=C/C=C/1C` [Rapamycin], for which the half-inhibitory concentration (IC50) in assay [1] is 0.0085 to 0.0088 µM. The “PLN (ratio)” value in assay [2] is recorded as 1. Further, the “Skin Graft survival time (days + SD)” value in assay [3] is recorded as 12.0 ± 1.7 days. Also, the antifungal activity result in the assay on Candida albicans was “antifungal activity, particularly against Candida albicans, both in vitro and in vivo”. Further, in the assay with adjuvant arthritis, the “effect in adjuvant arthritis model” value is on record as “effective”. In addition, the “survival time of organ grafts” value in assay [4] was “prolong survival time of organ grafts in histoincompatible rodents”. The “inhibition of T-cell activation” value in the assay with T-cell activation is reported as “inhibit T-cell activation”.
With `CO[C@H]1C[C@@H]2CC[C@@H](C)[C@@](O)(O2)C(=O)C(=O)N2CCCC[C@H]2C(=O)O[C@H]([C@H](C)C[C@@H]2CC[C@@H](O)[C@H](OC)C2)CC(=NNC(C)=O)[C@H](C)/C=C(\C)[C@@H](O)[C@@H](OC)C(=O)[C@H](C)C[C@H](C)/C=C/C=C/C=C/1C` [Example 1, Rapamycin 27-(methylcarbonyl hydrazone)], in assay [1] (setting [5]), the IC50 came to 0.0173 µM and the “LAF (ratio)” value was 0.50. The “Skin Graft survival time (days + SD)” value in assay [3] stood at 10.50 ± 0.6 days.
`CO[C@H]1C[C@@H]2CC[C@@H](C)[C@@](O)(O2)C(=O)C(=O)N2CCCC[C@H]2C(=O)O[C@H]([C@H](C)C[C@@H]2CC[C@@H](O)[C@H](OC)C2)CC(=NNC(N)=O)[C@H](C)/C=C(\C)[C@@H](O)[C@@H](OC)C(=O)[C@H](C)C[C@H](C)/C=C/C=C/C=C/1C` [Example 4, Rapamycin 27-semicarbazone]: in assay [1] (setting [5]), the IC50 came to 0.0372 µM and the “LAF (ratio)” value is reported as 0.24. Moreover, in assay [2], the “PLN (ratio)” value stood at 1.07.
As for `CO[C@H]1C[C@@H]2CC[C@@H](C)[C@@](O)(O2)C(=O)C(=O)N2CCCC[C@H]2C(=O)O[C@H]([C@H](C)C[C@@H]2CC[C@@H](O)[C@H](OC)C2)CC(=NNC(=O)Nc2ccccc2)[C@H](C)/C=C(\C)[C@@H](O)[C@@H](OC)C(=O)[C@H](C)C[C@H](C)/C=C/C=C/C=C/1C` [Example 2, Rapamycin 27-(4-Phenylsemicarbazone)], in assay [1] (setting [5]), the IC50 turned out to be 0.0192 µM and the “LAF (ratio)” value worked out at 0.45. For the same compound, in assay [3], the “Skin Graft survival time (days + SD)” value worked out at 7.83 ± 1.3 days.
`CO[C@H]1C[C@@H]2CC[C@@H](C)[C@@](O)(O2)C(=O)C(=O)N2CCCC[C@H]2C(=O)O[C@H]([C@H](C)C[C@@H]2CC[C@@H](O)[C@H](OC)C2)CC(=NNc2ccccn2)[C@H](C)/C=C(\C)[C@@H](O)[C@@H](OC)C(=O)[C@H](C)C[C@H](C)/C=C/C=C/C=C/1C` [Example 3, Rapamycin 27-(2-Pyridinylhydrazone)]: in assay [1] (setting [5]), the IC50 is 0.0159 µM and the “LAF (ratio)” value is 0.55.
